From US8802597B2, “Herbicidal pyrimidines” (E I du Pont de Nemours and Company, priority 2003, dated 2014)

How the values were obtained:
Type in all cases: in vivo
[1] = system: barnyardgrass (Echinochloa crus-galli); assay: Test A pre/postemergence
Method in brief: (§1)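 After planting in loam and sand, species received test chemical as preemergence soil spray; postemergence spray went on 2–10 cm plants at 1–2 leaves at the same time. Evaluation: visual injury, ~10 d, 0 no effect to 100 complete control.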

[2] = system: velvetleaf (Abutilon theophrasti); assay: Test A pre/postemergence
Method in brief: as §1

[3] = system: morningglory (Ipomoea spp.); assay: Test A pre/postemergence
Method in brief: as §1

[4] = system: crabgrass (Digitaria sanguinalis); assay: Test A pre/postemergence
Method in brief: as §1

[5] = system: redroot pigweed (Amaranthus retroflexus); assay: Test A pre/postemergence
Method in brief: as §1

[6] = system: giant foxtail (Setaria faberi); assay: Test A pre/postemergence
Method in brief: as §1

[7] = system: barnyardgrass (Echinochloa crus-galli); assay: Test E flooded paddy water application; conditions: Flood, 21 days, scale 0 to 100 (0 no effect, 100 complete control)
Method in brief: (§2)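 Response scored visually on a 0–100 scale (100 = complete control) at 21 days against untreated pots. Treatment was into paddy water 3 cm deep over silt loam, with plants at the 2.0–2.5-leaf stage, grown under 16-h light at 29.5/26.7 °C day/night.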

[8] = system: transplanted rice seedlings (Oryza sativa cv. ‘Japonica-M202’); assay: Test E flooded paddy water application; conditions: Flood, 21 days, scale 0 to 100 (0 no effect, 100 complete control)
Method in brief: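 Greenhouse pots of Tama silt loam with weeds and rice at 2.0–2.5-leaf stage, flooded to 3 cm; compounds applied directly into paddy water, depth maintained. Visual rating versus untreated controls after 21 days, 0 (no effect) to 100 (complete control); 29.5/26.7 °C, 16-h photoperiod.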

[9] = system: rice flatsedge (Cyperus iria); assay: Test E flooded paddy water application; conditions: Flood, 21 days, scale 0 to 100 (0 no effect, 100 complete control)
Method in brief: as §2

[10] = system: purple redstem (Ammannia coccinea); assay: Test E flooded paddy water application; conditions: Flood, 21 days, scale 0 to 100 (0 no effect, 100 complete control)
Method in brief: as §2

[11] = system: ducksalad (Heteranthera limosa); assay: Test E flooded paddy water application; conditions: Flood, 21 days, scale 0 to 100 (0 no effect, 100 complete control)
Method in brief: as §2

[12] = system: junglerice (Echinochloa colona); assay: Test E flooded paddy water application; conditions: Flood, 21 days, scale 0 to 100 (0 no effect, 100 complete control)
Method in brief: as §2

[13] = system: early watergrass (Echinochloa oryzoides); assay: Test E flooded paddy water application; conditions: Flood, 21 days, scale 0 to 100 (0 no effect, 100 complete control)
Method in brief: as §2

[14] = system: late watergrass (Echinochloa oryzicola); assay: Test E flooded paddy water application; conditions: Flood, 21 days, scale 0 to 100 (0 no effect, 100 complete control)
Method in brief: as §2

[15] = system: bearded (brdd.) sprangletop (Leptochloa fusca ssp. fascicularis); assay: Test E flooded paddy water application; conditions: Flood, 21 days, scale 0 to 100 (0 no effect, 100 complete control)
Method in brief: as §2

[16] = system: water seeded rice seedlings (Oryza sativa cv. ‘Japonica-M202’); assay: Test E flooded paddy water application; conditions: Flood, 21 days, scale 0 to 100 (0 no effect, 100 complete control)
Method in brief: as §2

[17] = system: smallflower umbrella sedge (Cyperus difformis); assay: Test E flooded paddy water application; conditions: Flood, 21 days, scale 0 to 100 (0 no effect, 100 complete control)
Method in brief: as §2

[18] = Postemergence, 125 g ai/ha, 0 to 100 scale (0 no effect, 100 complete control)
[19] = Postemergence, 500 g ai/ha, 0 to 100 scale (0 no effect, 100 complete control)
[20] = Preemergence, 125 g ai/ha, 0 to 100 scale where 0 is no effect and 100 is complete control, approximately ten days
[21] = Preemergence, 500 g ai/ha, 0 to 100 scale where 0 is no effect and 100 is complete control, approximately ten days

CCOC(=O)c1nc(-c2ccc(Cl)cc2Cl)nc(N)c1Cl [Compound 72]
Plant response rating, Barnyardgrass [1, 18]: 0 | Plant response rating, Barnyardgrass [1, 19]: 0 | Plant response rating, Barnyardgrass [1, 20]: 0 | Plant response rating, Barnyardgrass [1, 21]: 0 | Plant response rating, Velvetleaf [2, 18]: 85 | Plant response rating, Velvetleaf [2, 19]: 85 | Plant response rating, Velvetleaf [2, 20]: 40 | Plant response rating, Velvetleaf [2, 21]: 55 | Plant response rating, Morningglory [3, 18]: 55 | Plant response rating, Morningglory [3, 19]: 70 | Plant response rating, Morningglory [3, 20]: 0 | Plant response rating, Morningglory [3, 21]: 0 | Plant response rating, Crabgrass [4, 18]: 10 | Plant response rating, Crabgrass [4, 19]: 30 | Plant response rating, Crabgrass [4, 20]: 0 | Plant response rating, Crabgrass [4, 21]: 0 | Plant response rating, Pigweed [5, 18]: 95 | Plant response rating, Pigweed [5, 19]: 95 | Plant response rating, Pigweed [5, 20]: 75 | Plant response rating, Pigweed [5, 21]: 100 | Plant response rating, Foxtail, Giant [6, 18]: 0 | Plant response rating, Foxtail, Giant [6, 19]: 0 | Plant response rating, Foxtail, Giant [6, 20]: 0 | Plant response rating, Foxtail, Giant [6, 21]: 0 | Barnyardgrass plant response rating ([7]; 32 g ai/ha): 0 | Barnyardgrass plant response rating ([7]; 125 g ai/ha): 0 | Barnyardgrass plant response rating ([7]; 250 g ai/ha): 0 | Rice, Transplanted plant response rating ([8]; 32 g ai/ha): 0 | Rice, Transplanted plant response rating ([8]; 64 g ai/ha): 0 | Rice, Transplanted plant response rating ([8]; 125 g ai/ha): 0 | Rice, Transplanted plant response rating ([8]; 250 g ai/ha): 0 | Plant response rating, Rice, Transplanted ([8]; 16 g ai/ha): 0 | Flatsedge, Rice plant response rating ([9]; 32 g ai/ha): 100 | Flatsedge, Rice plant response rating ([9]; 64 g ai/ha): 100 | Flatsedge, Rice plant response rating ([9]; 125 g ai/ha): 100 | Flatsedge, Rice plant response rating ([9]; 250 g ai/ha): 100 | Plant response rating, Flatsedge, Rice ([9]; 16 g ai/ha): 90 | Redstem plant response rating ([10]; 32 g ai/ha): 25 | Redstem plant response rating ([10]; 64 g ai/ha): 25 | Redstem plant response rating ([10]; 125 g ai/ha): 35 | Redstem plant response rating ([10]; 250 g ai/ha): 100 | Plant response rating, Redstem ([10]; 16 g ai/ha): 0 | Ducksalad plant response rating ([11]; 32 g ai/ha): 80 | Ducksalad plant response rating ([11]; 64 g ai/ha): 100 | Ducksalad plant response rating ([11]; 125 g ai/ha): 100 | Ducksalad plant response rating ([11]; 250 g ai/ha): 100 | Plant response rating, Ducksalad ([11]; 16 g ai/ha): 80 | Junglerice plant response rating ([12]; 32 g ai/ha): 0 | Junglerice plant response rating ([12]; 64 g ai/ha): 0 | Junglerice plant response rating ([12]; 125 g ai/ha): 0 | Junglerice plant response rating ([12]; 250 g ai/ha): 0 | Plant response rating, Junglerice ([12]; 16 g ai/ha): 0 | Watergrass, Early plant response rating ([13]; 32 g ai/ha): 0 | Watergrass, Early plant response rating ([13]; 64 g ai/ha): 0 | Watergrass, Early plant response rating ([13]; 125 g ai/ha): 0 | Watergrass, Early plant response rating ([13]; 250 g ai/ha): 0 | Plant response rating, Watergrass, Early ([13]; 16 g ai/ha): 0 | Watergrass, Late plant response rating ([14]; 32 g ai/ha): 0 | Watergrass, Late plant response rating ([14]; 64 g ai/ha): 0 | Watergrass, Late plant response rating ([14]; 125 g ai/ha): 0 | Watergrass, Late plant response rating ([14]; 250 g ai/ha): 0 | Plant response rating, Watergrass, Late ([14]; 16 g ai/ha): 0 | Sprangletop, Brdd. plant response rating ([15]; 32 g ai/ha): 0 | Sprangletop, Brdd. plant response rating ([15]; 64 g ai/ha): 0 | Sprangletop, Brdd. plant response rating ([15]; 125 g ai/ha): 0 | Sprangletop, Brdd. plant response rating ([15]; 250 g ai/ha): 0 | Plant response rating, Sprangletop, Brdd. ([15]; 16 g ai/ha): 0 | Rice, Water Seeded plant response rating ([16]; 32 g ai/ha): 0 | Rice, Water Seeded plant response rating ([16]; 64 g ai/ha): 0 | Rice, Water Seeded plant response rating ([16]; 125 g ai/ha): 0 | Rice, Water Seeded plant response rating ([16]; 250 g ai/ha): 0 | Plant response rating, Rice, Water Seeded ([16]; 16 g ai/ha): 0 | Sedge, Umbrella plant response rating ([17]; 32 g ai/ha): 30 | Sedge, Umbrella plant response rating ([17]; 64 g ai/ha): 75 | Sedge, Umbrella plant response rating ([17]; 125 g ai/ha): 90 | Sedge, Umbrella plant response rating ([17]; 250 g ai/ha): 100 | Plant response rating, Sedge, Umbrella ([17]; 16 g ai/ha): 0
